The subject of the assay is HpFT-2 (Helicobacter pylori α1,3 fucosyltrasferase). Briefly: Conversion efficiency of α1,3 fucosyltrasferase towards GDP-fucose derivatives with different jointer on the antibodies (LC-MS). It counts as biochemical. Particulars: substrate 1 mM, HpFT-2 0.5 mg/mL. Here is the method: Trastuzumab-(GalNAzβ1,4)GlcNAc (2 mg/mL) was incubated with GDP-FAzP4Biotin (1 mM) or GDP-FAmP4Biotin (1 mM) and HpFT-2 (0.5 mg/mL) in 50 mM Tris-HCl buffer (pH 7.5) with 5 mM MgCl2 at 30° C. for 2 hours. […] The reaction mixtures were then quenched by adding LacNAc (final concentration 10 mM) and purified with protein A resin and analyzed by LC-MS respectively.

The mark [1] stands for this setting: antibody Trastuzumab-(Fucα1,6)(Galβ1,4)GlcNAc 2 mg/mL, reaction time 10 min, average MAR/2*100%.
Setting [2] is: antibody Trastuzumab-(GalNAzβ1,4)GlcNAc 2 mg/mL, reaction time 2 h, average MAR/2*100%.
The mark [3] stands for this setting: antibody Trastuzumab-(Galβ1,4)GlcNAc 2 mg/mL, reaction time 10 min, average MAR/2*100%.

For the compound `Nc1nc2c(ncn2[C@@H]2O[C@H](COP(=O)(O)OP(=O)(O)O[C@H]3OC(CNC(=O)CCOCCOCCOCCOCCNC(=O)CCCC[C@@H]4SC[C@@H]5NC(=O)N[C@@H]54)[C@@H](O)C(O)C3O)C(O)C2O)c(=O)[nH]1` (stereo partly shown) [GDP-FAmP4Biotin], the “% of conversion” value under setting [1] was determined as 42 ± 5.3%, the “% of conversion” value under setting [2] worked out at 77 ± 5.0% and the “% of conversion” value under setting [3] amounted to 83 ± 1.2%.

For the compound `Nc1nc2c(ncn2[C@@H]2O[C@H](COP(=O)(O)OP(=O)(O)O[C@H]3OC(Cn4cc(COCCOCCOCCOCCNC(=O)CCCC[C@@H]5SC[C@@H]6NC(=O)N[C@@H]65)nn4)[C@@H](O)[C@H](O)C3O)C(O)[C@@H]2O)c(=O)[nH]1` (stereo partly shown) [GDP-FAzP4Biotin], the “% of conversion” value by setting is: under setting [1], 30 ± 4.6%; under setting [2], 13 ± 4.7%; under setting [3], 60 ± 0.6%; (antibody Trastuzumab-G2F 2 mg/mL, reaction time 2 h, average MAR/4*100%) 9 ± 1.2%.
